pIC50: −log10 of the molar value.
Columns and labels:
[1] = tested on: IL-2 release from stimulated Jurkat cells; assay: Human IL-2 Release Phenotypic Assay (Assay 3); assay type: cell-based; conditions: Jurkat cells (clone E6-1), 200 ng/mL PMA + 300 ng/mL ionomycin, IL-2 by ELISA
Procedure, shortened: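 IC50 values were fitted by 4-parameter non-linear regression to IL-2 release from Jurkat E6-1 cells. Those cells were stimulated for 48 h with PMA (200 ng/mL) plus ionomycin (300 ng/mL) after a 30-min compound pre-incubation at half-log doses in 0.5% DMSO. Cells had been plated at 50 000/well overnight at 37° C.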

FL hMALT1 enzyme = target: T1, FL hMALT1 enzyme (Homo sapiens, UniProt Q9UDY8); assay: biochemical;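 further: Cell-free protease assay: enzyme preincubated with compound 30 min at room temperature, then cleavage of fluorogenic Ac-LVSR-AMC substrate (100 µM) tracked by fluorescence (ex 360/em 460 nm)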
T1 sequence (Q9UDY8 1-824): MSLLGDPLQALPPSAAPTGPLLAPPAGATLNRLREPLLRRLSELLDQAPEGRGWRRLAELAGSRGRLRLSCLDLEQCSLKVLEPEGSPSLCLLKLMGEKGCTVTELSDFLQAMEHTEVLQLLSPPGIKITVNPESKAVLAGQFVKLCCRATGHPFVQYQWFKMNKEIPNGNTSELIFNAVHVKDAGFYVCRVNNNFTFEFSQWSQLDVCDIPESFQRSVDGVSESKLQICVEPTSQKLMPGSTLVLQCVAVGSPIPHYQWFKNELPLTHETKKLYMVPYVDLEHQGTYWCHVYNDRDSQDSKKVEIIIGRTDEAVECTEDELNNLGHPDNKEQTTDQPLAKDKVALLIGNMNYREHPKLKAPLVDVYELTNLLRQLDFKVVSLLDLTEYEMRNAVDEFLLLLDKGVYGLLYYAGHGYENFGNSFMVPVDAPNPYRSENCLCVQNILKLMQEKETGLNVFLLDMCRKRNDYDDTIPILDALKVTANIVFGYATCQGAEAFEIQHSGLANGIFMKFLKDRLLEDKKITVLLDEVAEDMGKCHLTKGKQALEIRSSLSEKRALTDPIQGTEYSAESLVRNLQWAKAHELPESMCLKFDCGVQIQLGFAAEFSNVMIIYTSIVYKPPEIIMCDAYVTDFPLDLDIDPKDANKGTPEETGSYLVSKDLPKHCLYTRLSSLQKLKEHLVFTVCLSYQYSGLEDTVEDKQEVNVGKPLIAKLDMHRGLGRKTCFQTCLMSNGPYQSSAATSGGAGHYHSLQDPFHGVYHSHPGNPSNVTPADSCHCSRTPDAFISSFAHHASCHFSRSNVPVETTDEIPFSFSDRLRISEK

Row | SMILES | pIC50 ([1]; Homo sapiens, Jurkat, 48 h) | pIC50 (FL hMALT1 enzyme) | pIC50 ([1]; 48 hours)
1 | CN(C(=O)C1CCS(=O)(=O)CC1)[C@@H](c1ccc(NC2Cc3cccc(C(F)(F)F)c3C2)nc1)C(F)(F)F (single isomer, unassigned) [Example 281] | 6.34 | 7.85 | –
2 | CN(C(=O)C1CCS(=O)(=O)CC1)[C@@H](c1ccc(NC2Cc3ccc(Br)cc3C2)cn1)C(F)(F)F (single isomer, unassigned) [Example 284] | 6.31 | 7.07 | –
3 | CN(C(=O)C1CCS(=O)(=O)CC1)[C@@H](c1ccc(NC2Cc3ccc(Cl)cc3C2)nc1)C(F)(F)F (single isomer, unassigned) [Example 289] | 6.52 | 7.35 | –
4 | CN(C(=O)C1CCS(=O)(=O)CC1)[C@@H](c1ccc(NC2Cc3c(F)ccc(Cl)c3C2)cn1)C(F)(F)F (single isomer, unassigned) [Example 293] | 6.34 | 7.26 | –
5 | CN(C(=O)C1CCS(=O)(=O)CC1)[C@@H](c1ccc(NC2Cc3ccc(Cl)c(C4CC4)c3C2)cn1)C(F)(F)F (single isomer, unassigned) [Example 306] | 6.70 | 8.05 | –
6 | CN(C(=O)C1CCS(=O)(=O)CC1)[C@@H](c1ccc(NC2Cc3ccc(Cl)c(C(F)(F)F)c3C2)cn1)C(F)(F)F (single isomer, unassigned) [Example 312] | 6.46 | 7.82 | –
7 | CN(C(=O)C1CCNC(=O)C1)[C@@H](c1ccc(N[C@H]2Cc3ccc(Cl)cc3C2)cn1)C(F)(F)F (single isomer, unassigned) [Example 314] | 6.42 | 6.82 | –
8 | CN(C(=O)[C@@H]1CNC(=O)C1)[C@@H](c1ccc(NC2Cc3ccc(Cl)c(F)c3C2)cn1)C(F)(F)F (single isomer, unassigned) [Example 317] | 6.95 | 7.14 | –
9 | CN(C(=O)[C@@H]1CNC(=O)C1)[C@@H](c1ccc(NC2Cc3ccc(Cl)c(Cl)c3C2)cn1)C(F)(F)F (single isomer, unassigned) [Example 319] | 7.18 | 7.62 | –
10 | CN(C(=O)[C@H]1CCC(=O)NC1)[C@@H](c1ccc(NC2Cc3ccc(Cl)c(Cl)c3C2)cn1)C(F)(F)F (single isomer, unassigned) [Example 321] | 7.07 | 7.60 | –
11 | CN(C(=O)C12CC(NS(C)(=O)=O)(C1)C2)[C@@H](c1ccc(NC2Cc3ccc(Cl)c(Cl)c3C2)cn1)C(F)(F)F (single isomer, unassigned) [Example 323] | 7.00 | 7.85 | –
12 | CN(C(=O)C1CCN(S(C)(=O)=O)CC1)[C@@H](c1ccc(NC2Cc3ccc(Cl)c(Cl)c3C2)cn1)C(F)(F)F (single isomer, unassigned) [Example 325] | 7.46 | 8.05 | –
13 | CN(C(=O)[C@@H]1CNC(=O)C1)[C@@H](c1ccc(NC2Cc3ccc(Cl)c(C4CC4)c3C2)cn1)C(F)(F)F (single isomer, unassigned) [Example 328] | 6.62 | 7.74 | –
14 | CN(C(=O)[C@H]1CCC(=O)NC1)[C@@H](c1ccc(NC2Cc3ccc(Cl)c(C4CC4)c3C2)cn1)C(F)(F)F (single isomer, unassigned) [Example 330] | 6.66 | 7.80 | –
15 | CN(C(=O)C1CCS(=O)(=O)CC1)[C@@H](c1ccc(NC2Cc3ccc(Cl)c(F)c3C2)nc1)C(F)(F)F (single isomer, unassigned) [Example 332] | 7.33 | 7.85 | –
16 | CNC(=O)N1CC(C(=O)N(C)[C@@H](c2ccc(NC3Cc4ccc(Cl)c(Cl)c4C3)cn2)C(F)(F)F)C1 (single isomer, unassigned) [Example 335] | 7.38 | 7.85 | –
17 | CN(C(=O)[C@H]1CCC(=O)NC1)[C@@H](c1ccc(NC2Cc3ccc(Cl)c(F)c3C2)cn1)C(F)(F)F (single isomer, unassigned) [Example 337] | 6.77 | 7.29 | –

Row | SMILES | pIC50 ([1]; Homo sapiens, Jurkat, 48 h) | pIC50 (FL hMALT1 enzyme) | pIC50 ([1]; 48 hours)
18 | CN(C(=O)[C@H]1CNC(=O)C1)[C@@H](c1ccc(NC2Cc3ccc(Cl)c(F)c3C2)nc1)C(F)(F)F (single isomer, unassigned) [Example 339] | 7.18 | 7.62 | –
19 | CN(C(=O)C1CC2(CCC(=O)N2)C1)[C@@H](c1ccc(NC2Cc3ccc(Cl)c(Cl)c3C2)cn1)C(F)(F)F (single isomer, unassigned) [Example 341] | – | 7.82 | 7.00
20 | CN(C(=O)C1CC2(CCC(=O)N2)C1)[C@@H](c1ccc(NC2Cc3ccc(Cl)c(Cl)c3C2)cn1)C(F)(F)F (single isomer, unassigned) [Example 343] | – | 7.11 | 6.44
21 | CN(C(=O)[C@H]1CNC(=O)C1)[C@@H](c1ccc(NC2Cc3ccc(Cl)c(Cl)c3C2)nc1)C(F)(F)F (single isomer, unassigned) [Example 347] | 7.39 | 7.80 | –
22 | CN(C(=O)CC#N)[C@@H](c1ccc(NC2Cc3ccc(Cl)c(Cl)c3C2)cn1)C(F)(F)F (single isomer, unassigned) [Example 350] | 6.64 | 7.21 | –
23 | CN(C(=O)C1CN(C(=O)C2CCOC2)C1)[C@@H](c1ccc(NC2Cc3ccc(Cl)c(Cl)c3C2)cn1)C(F)(F)F (single isomer, unassigned) [Example 352] | 6.96 | 7.34 | –
24 | CN(C(=O)C1CN(C(=O)C2CCOC2)C1)[C@@H](c1ccc(NC2Cc3ccc(Cl)c(Cl)c3C2)cn1)C(F)(F)F (single isomer, unassigned) [Example 353] | – | 7.48 | 7.20
25 | CN(C(=O)C1CCS(=O)(=O)C1)[C@@H](c1ccc(NC2Cc3ccc(Cl)c(Cl)c3C2)cn1)C(F)(F)F (single isomer, unassigned) [Example 358] | – | 7.26 | 6.60
26 | CN(C(=O)C1CCS(=O)(=O)C1)[C@@H](c1ccc(NC2Cc3ccc(Cl)c(Cl)c3C2)cn1)C(F)(F)F (single isomer, unassigned) [Example 360] | – | 7.52 | 6.96
27 | CN(C(=O)C1CN(C(=O)C2COC2)C1)[C@@H](c1ccc(NC2Cc3ccc(Cl)c(F)c3C2)cn1)C(F)(F)F (single isomer, unassigned) [Example 371] | 6.66 | 7.12 | –
28 | Cc1c(Cl)ccc2c1CC(Nc1ccc([C@H](N(C)C(=O)C3CCS(=O)(=O)CC3)C(F)(F)F)nc1)C2 (single isomer, unassigned) [Example 372] | 6.89 | 7.72 | –
29 | CN(C(=O)[C@H]1C[C@H](O)C1)[C@@H](c1ccc(NC2Cc3ccc(Cl)c(F)c3C2)cn1)C(F)(F)F (single isomer, unassigned) [Example 374] | 6.64 | 7.30 | –
30 | CC(=O)N1CC(C(=O)N(C)[C@@H](c2ccc(NC3Cc4ccc(Cl)c(Cl)c4C3)cn2)C(F)(F)F)C1 (single isomer, unassigned) [Example 377] | 6.89 | 7.40 | –
31 | CN(C(=O)[C@@H]1CC(=O)N1)[C@@H](c1ccc(N[C@H]2Cc3ccccc3C2(C)C)cn1)C(F)(F)F [Example 165, (S)—N—((S)-1-(5-(((S)-1,1-Dimethyl-2,3-dihydro-1H-inden-2-yl)amino)pyridin-2-yl)-2,2,2-trifluoroethyl)-N-methyl-4-oxoazetidine-2-carboxamide] | 6.35 | 7.06 | –
32 | CC(=O)N[C@H]1CC[C@@H](C(=O)N(C)[C@@H](c2ccc(N[C@H]3Cc4ccccc4C3(C)C)cn2)C(F)(F)F)C1 [Example 172, (1R,3S)-3-Acetamido-N—((S)-1-(5-(((S)-1,1-dimethyl-2,3-dihydro-1H-inden-2-yl)amino)pyridin-2-yl)-2,2,2-trifluoroethyl)-N-methylcyclopentane-1-carboxamide] | 6.31 | 7.15 | –
33 | CNC(=O)C12CC(C(=O)N(C)[C@@H](c3ccc(N[C@H]4Cc5ccccc5C4(C)C)cn3)C(F)(F)F)(C1)C2 [Example 185, N^1—((S)-1-(5-(((S)-1,1-Dimethyl-2,3-dihydro-1H-inden-2-yl)amino)pyridin-2-yl)-2,2,2-trifluoroethyl)-N^1,N^3-dimethylbicyclo[1.1.1]pentane-1,3-dicarboxamide] | 6.52 | 7.38 | –
34 | CC(=O)N[C@@H]1CC[C@H](C(=O)N(C)[C@@H](c2ccc(N[C@H]3Cc4ccccc4C3(C)C)cn2)C(F)(F)F)C1 [Example 187, (1,3-cis)-3-Acetamido-N—((S)-1-(5-(((S)-1,1-dimethyl-2,3-dihydro-1H-inden-2-yl)amino)pyridin-2-yl)-2,2,2-trifluoroethyl)-N-methylcyclobutane-1-carboxamide] | 6.35 | 7.03 | –
